# Measured values: patent publication US10160785B2, “Antimicrobial peptides and their use for the treatment of topical infections” (priority 2015, dated 2018)
# Legend:
# [1] = system: Candida albicans (Olomouc); assay: microbe, parasite or virus in culture; type: cell-based; settings: Candida albicans; RPMI broth microdilution, 35° C., 48 hours, visual; read-out: Antifungal activity MIC C. albicans Olomouc
# Experimental: (§1) All yeasts Candida albicans (Olomouc) and ATCC MYA-2876, Candida glabrata ATCC 2001 and DSY 565, Candida dubliniensis ATCC MYA-646, Candida krusei ATCC 6258 and Candida tropicalis ATCC 750 were sub-cultured from sterile vials onto Sabouraud dextrose agar, which was composed of 40 g dextrose (Penta, Czech Republic), 10 g peptone (OXOID, Great Britain) and 17 g agar (OXOID), dissolved in 1 l of distilled water, and cultivated for 24 hours at 35° C.
# (§2) All strains were stored in a way that minimizes the possibility of mutation. Candida spp. were grown overnight in liquid YPD medium which is composed of 10 g yeast extract (DIFCO, USA), 20 g peptone (OXOID), and 20 g dextrose (Penta) dissolved in 1 l distilled water. Then the overnight culture was cryogenically preserved by suspending in 50% glycerol solution (1:1) in small vials and stored at −80° C.
# (§3) The inoculum was prepared by picking five colonies from 24-hour-old cultures of Candida spp. The colonies were suspended in 1 ml of sterile saline solution and vortexed for 15 seconds. Optical density of the suspension was adjusted spectrophotometrically by adding sterile saline solution to produce optical density of 0.18 at 600 nm. A working suspension was made by a 1:50 dilution followed by a 1:20 dilution of the stock suspension with RPMI 1640 broth medium which was composed of L-glutamine without NaHCO3 (BioSera, France), and with 0.165 mol.l^−1 MOPS (Duchefa, Netherland)—further as RPMI broth medium.
# (§4) The broth microdilution test was performed by using sterile, disposable, multi-well microdilution plates (96-well). The peptides in the concentrations 0.625-160 μmol.l^−1 were pipetted into the wells in 100 μl volumes. Each well of the plate was inoculated with 100 μl of the diluted inoculum suspension. Final yeast density in each well was 5×10^2 up to 2.5×10^3 CFU/ml. The microdilution plates were incubated without shaking at 35° C. and observed for the presence or absence of visible growth for 48 hours.
# (§5) Drug-free medium without inoculation served as negative control; the growth positive control contained inoculated drug-free medium. Amphotericin B was used as control drug to ensure quality of Candida strains.
# (§6) The minimal inhibition concentrations (MICs) were visually determined 48 hours after inoculation. The MIC values were defined as the lowest concentration in which no observable growth is noticeable.
# (§7) All yeast isolates were obtained from the Institute of Physiology of the Academy of Sciences of the Czech Republic. Candida albicans (Olomouc) came from the Faculty of Medicine and Dentistry, Palacý University Olomouc.
# [2] = system: Candida albicans ATCC MYA-2876; assay: microbe, parasite or virus in culture; type: cell-based; settings: Candida albicans; RPMI broth microdilution, 35° C., 48 hours, visual; read-out: Antifungal activity MIC C. albicans ATCC MYA-2876
# Experimental: as §1, §2, §3, §4, §5, §6, §7
# [3] = system: Candida dubliniensis ATCC MYA-646; assay: microbe, parasite or virus in culture; type: cell-based; settings: Candida dubliniensis; RPMI broth microdilution, 35° C., 48 hours, visual; read-out: Antifungal activity MIC C. dubliniensis ATCC MYA-646
# Experimental: as §1, §2, §3, §4, §5, §6, §7
# [4] = system: Candida glabrata ATCC 2001; assay: microbe, parasite or virus in culture; type: cell-based; settings: Nakaseomyces glabratus, ATCC2001; RPMI broth microdilution, 35° C., 48 hours, visual; read-out: Antifungal activity MIC C. glabrata ATCC 2001
# Experimental: as §1, §2, §3, §4, §5, §6, §7
# Candida glabrata DSY 565 = assay: microbe, parasite or virus in culture; type: cell-based; settings: Nakaseomyces glabratus, DSY565; RPMI broth microdilution, 35° C., 48 hours, visual; read-out: Antifungal activity MIC C. glabrata DSY 565
# Experimental: as §1, §2, §3, §4, §5, §6, §7
# Candida krusei ATCC 6258 = assay: microbe, parasite or virus in culture; type: cell-based; settings: Pichia kudriavzevii, ATCC6258; RPMI broth microdilution, 35° C., 48 hours, visual; read-out: Antifungal activity MIC C. krusei ATCC 6258
# Experimental: as §1, §2, §3, §4, §5, §6, §7
# [5] = system: Candida tropicalis ATCC 750; assay: microbe, parasite or virus in culture; type: cell-based; settings: Candida tropicalis, ATCC750; RPMI broth microdilution, 35° C., 48 hours, visual; read-out: Antifungal activity MIC C. tropicalis ATCC 750
# Experimental: as §1, §2, §3, §4, §5, §6, §7
# [6] = system: Candida albicans (Olomouc) biofilm; assay: C. albicans biofilm, remaining metabolic activity (XTT); type: cell-based
# Experimental: Candida albicans (Olomouc) was sub-cultured overnight in YPD medium (10 g yeast extract (DIFCO, USA), 20 g peptone (OXOID), 20 g glucose (Penta) dissolved in 1 L of distilled water) at constant shaking (100 RPM) at 37° C. Next day, the overnight culture was diluted 1:100 into fresh YPD medium and incubated at constant shaking (200 RPM) at 37° C. until the mid-exponential growth phase was reached. Then the cells were harvested and washed twice by centrifugation in physiological solution (5000 RPM; 5 min). Cells were suspended in sterile salt solution and their optical density was determined at 600 nm.
# A final yeast suspension was prepared at a cell density of 1×10^6 CFU (corresponding to optical density of 0.17 at 600 nm) in RPMI 1640 medium with L-glutamine (BioSera), NaHCO3 (2 g/l; Penta) and 0.165 mol.l^−1 MOPS (Duchefa)—further as RPMI broth medium 1.
# Biofilms were formed on commercially available sterile, polystyrene, flat-bottomed, 96-well microtiter plates (TPP, SW). Cell suspension (100 μl) was pipetted into selected wells of a microtiter plate and incubated without shaking for 2 hours at 37° C. Afterwards, the wells were washed twice with sterile PBS buffer (1.44 g Na2HPO4, 0.24 g KH2PO4, 0.2 g KCl and 8 g NaCl in 1 l distilled water, pH=7; Penta). Fresh RPMI broth medium 1 (100 μl) was added to each well and the plate was sealed with parafilm and incubated without shaking for 48 hours at 37° C.
# Planktonic and non-adherent cells were removed by threefold washing of the biofilm with sterile PBS buffer (200 μl). A twofold serial dilution was used to reach required peptide concentration (in RPMI broth medium 1) in each well. Peptide concentrations range was between 0.39-200 μmol.l^−1. Plates were then sealed with parafilm and incubated for 20 hours at 37° C.
# The metabolic activity of surviving Candida cells in the treated biofilm was determined by staining with XTT (2,3-Bis(2-methoxy-4-nitro-5-sulphophenyl)-2H-tetrazolium-5-carboxanilide). Stock solution of PMS (phenazine methosulfate; 7.5 g/l; SIGMA, Czech Republic) stored at −20° C. was diluted in PBS buffer 1:100. Diluted PMS was further mixed (2:25) with stock solution of XTT (0.5 g/l; Alchimica, Slovakia) dissolved in PBS/RPMI broth medium (1:1). Mixture (100 μl) of PMS and XTT was added into treated biofilm in the wells and incubated for 90 min at 37° C. Then the intensity of staining in each well was measured as absorbance at 540 nm on a Tecan Infinite M200 Pro reader (Tecan GmbH, Austria). Remaining metabolic activity of the cells in the biofilm was expressed for each well in percentage and calculated as follows:
# [formula] where A is the absorbance of tested compound, ABL is the absorbance of negative control and AC is the absorbance of control untreated biofilm. The non-inoculated wells served as negative control. Inoculated wells not treated with compound served as positive control. Amphotericin B was used as control drug to ensure quality of Candida albicans. The values of remaining metabolic activity of treated biofilms are shown at Table 5.
# in vitro = settings: human
# Experimental: The peptides in the concentrations 2-200 μmol.l^−1 were incubated with the suspension of human red blood cells (5% v/v) for 1 h at 37° C. in a physiological solution at a final volume of 0.2 ml. The samples were then centrifuged for 5 min at 250 g, and the absorbance of the supernatant was determined at 540 nm. Supernatants of red blood cells suspended in physiological solution and in 0.2% (v/v) TRITON X100 in physiological solution served as controls for zero hemolysis (blank) and 100% hemolysis, respectively. Hemolytic activity is expressed as the peptide concentration required for lysis of 50% of human erythrocytes in the assay (LC50).
# [7] = system: S. aureus (Liberec) biofilm; assay: Bacterial biofilm, remaining metabolic activity (MTT); type: cell-based, Staphylococcus aureus; settings: remaining metabolic activity of biofilm, 20 h
# Experimental: (§8) Inoculum of S. aureus (Liberec) or P. aeruginosa (Liberec) cultivated overnight in BHI medium was diluted with fresh BHI medium containing 1% glucose to a final concentration to be ca. 10^8 CFU/ml. Then this was pipetted (100 μl) to 96-multiwell polystyrene plate which was incubated at 37° C. under rotary shaking (300 RPM) for 24 h. Medium without bacteria in the wells was used as a negative control. Supernatant from each well was drained and the biofilm formed on the bottom and on the walls of the wells was cautiously washed three times by sterile physiological solution (300 μl). The peptides tested in the concentrations of 1-128 μmol.l^−1 were prepared by twofold serial dilution of their stock solution (1 mmol.l^−1) in fresh BHI medium and then pipetted (100 μl) to the wells with formed biofilms. The biofilms covered by BHI medium without peptide were used as a positive control. The plates were then incubated for 20 h as described above. After that the liquid was drained out and wells were washed twice with sterile physiological solution.
# (§9) The metabolic activity of surviving bacterial cells in the biofilm was determined by staining with MTT (3-(4,5-dimethylthiazol-2-yl)-2,5-diphenyl-2H-tetrazolium bromide) as follows: The mixture of BHI medium (100 μl) and 10 μl of the stock solution of MTT (5 mg/ml in physiological solution) was added to each well and the plate was incubated 40 min at 37° C. The liquid was drained out and the insoluble formazan crystals formed by reduction inside the biofilm were dissolved with dimethyl sulphoxide (100 μl). The intensity of staining in each well was measured as absorbance at 540 nm on a Tecan Infinite M200 Pro reader (Tecan GmbH, Austria). Remaining activity of surviving cells inside the biofilm was expressed for each well in percentage according to the following equation:
# (§10) [formula] where A is the absorbance of the tested compound, ABL is the absorbance of the negative control, and AC is the absorbance of control biofilm.
# [8] = system: P. aeruginosa (Liberec) biofilm; assay: as above; type: cell-based, Pseudomonas aeruginosa; settings: remaining metabolic activity of biofilm, 20 h
# Experimental: as §8, §9, §10
# [9] = peptide concentration 6.25 μmol · l^−1, 20 hours
# [10] = peptide concentration 12.5 μmol · l^−1, 20 hours
# [11] = peptide concentration 25 μmol · l^−1, 20 hours
# [12] = peptide concentration 50 μmol · l^−1, 20 hours
# [13] = peptide concentration 100 μmol · l^−1, 20 hours
# [14] = peptide concentration 200 μmol · l^−1, 20 hours
# [15] = peptide concentration 8 μmol · l^−1
# [16] = peptide concentration 16 μmol · l^−1
# [17] = peptide concentration 32 μmol · l^−1
# [18] = peptide concentration 64 μmol · l^−1
# [19] = peptide concentration 128 μmol · l^−1
MIC [1] [µM],MIC [2] [µM],MIC [3] [µM],MIC [4] [µM],MIC (Candida glabrata DSY 565) [µM],MIC (Candida krusei ATCC 6258) [µM],MIC [5] [µM],Compound,"Metabolic activity of C. albicans (%) [6, 9] [%]","Metabolic activity of C. albicans (%) [6, 10] [%]","Metabolic activity of C. albicans (%) [6, 11] [%]","Metabolic activity of C. albicans (%) [6, 12] [%]","Metabolic activity of C. albicans (%) [6, 13] [%]","Metabolic activity of C. albicans (%) [6, 14] [%]",CC50 at 1 h (in vitro) [µM],"Metabolic activity (%) S. aureus (Liberec) [7, 15] [%]","Metabolic activity (%) S. aureus (Liberec) [7, 16] [%]","Metabolic activity (%) S. aureus (Liberec) [7, 17] [%]","Metabolic activity (%) S. aureus (Liberec) [7, 18] [%]","Metabolic activity (%) S. aureus (Liberec) [7, 19] [%]","Metabolic activity (%) P. aeruginosa (Liberec) [8, 15] [%]",other results
0.4,0.3,1.4,14.2,35,1,4.6,"Clc1ccccc1C(c1ccccc1)(c1ccccc1)n1ccnc1 [Clotrimazole, reference compound]",39.7,37.6,34.2,28.4,21.8,22.2,–,–,–,–,–,–,–,–
2,2.2,1.8,267,950,516,49.3,"OC(Cn1cncn1)(Cn1cncn1)c1ccc(F)cc1F [Fluconazole, reference compound]",33.5,30.8,31.7,30.7,32.4,29.2,–,–,–,–,–,–,–,–
–,–,–,–,–,–,–,H-GIMSSLMKKLAAIIKK-NH2 [IX],93.2,54.3,2.3,1.5,1.3,0.8,> 400,79.1,53.6,54.0,30.5,23.6,73.6,"Metabolic activity (%) P. aeruginosa (Liberec) [8, 16]: 76.8%; Metabolic activity (%) P. aeruginosa (Liberec) [8, 17]: 85.3%; Metabolic activity (%) P. aeruginosa (Liberec) [8, 18]: 83.8%; Metabolic activity (%) P. aeruginosa (Liberec) [8, 19]: 34.2%"
–,–,–,–,–,–,–,H-GIMSSLMKKLKKIIAK-NH2 [I],100.4,108.0,130.7,57.5,28.2,8.1,> 400,111.6,103.3,111.2,101.9,11.4,86.4,"Metabolic activity (%) P. aeruginosa (Liberec) [8, 16]: 87.7%; Metabolic activity (%) P. aeruginosa (Liberec) [8, 17]: 89.6%; Metabolic activity (%) P. aeruginosa (Liberec) [8, 18]: 62.9%; Metabolic activity (%) P. aeruginosa (Liberec) [8, 19]: 43.4%"
